Test results from PMC9681820, “A PDE10A inhibitor CPL500036 is a novel agent modulating striatal function devoid of most neuroleptic side-effects” (Frontiers in Pharmacology, 2022).
Like-named read-outs stand apart in the source and are kept apart here.

Columns and labels:
[1] = test system: Salmonella typhimurium TA100; settings: CPL500036 5000µg/plate, n=3
[2] = test system: Salmonella typhimurium TA98; experiment: Ames test; settings: CPL500036 5000µg/plate, n=3
[3] = test system: cardiac 3D spheroids (cardiomyocytes and fibroblasts derived from human pluripotent cells); experiment: Cardiotoxicity in spontaneously beating cardiac 3D spheroids; format: cell-based
Description: The cardiotoxic effect of CPL500036 was evaluated in spontaneously beating cardiac 3D spheroids (comprising cardiomyocytes and fibroblasts derived from human pluripotent cells) by Cyprotex (Cheshire, United Kingdom). Experiments were carried out in accordance with the service-provider’s protocol. Specific parameters of cell health were assessed: number and size of spheroids, DNA structure, intracellular level of calcium ions, mitochondrial mass, membrane potential and cellular ATP. […] During the 14 days of the experiment, redosing occurred on three occasions. Spheroid hypertrophy was measured on days 3, 7, 10, and 14 using the “brightfield live cellular imaging” mode of a Cellomics ArrayScan® XTI system (Thermo Scientific, Waltham, MA, United States). On day-14, the spheroid model was analyzed using the confocal mode of Cellomics ArrayScan XTI following incorporation of appropriate fluorescent dyes. Subsequently, cellular ATP content was measured using CellTiterGlo® (Promega, Fitchburg, WI, United States). Mitomicyn C and dasatinib were used as positive controls (Supplementary Table S1).
concentration at which 50% maximum effect is observed for each cell health parameter; NR - No response observed.

[4] = test system: unilateral rat model of Parkinson’s disease; set-up: method as in Lenda et al., 2021; settings: Parkinson’s disease animal model; ref Lenda et al., 2021; cited from earlier work
[5] = Pharmacokinetics after oral gavage in dogs (plasma); format: in vivo; settings: both sexes, Beagle, dog plasma, 1.5 mg/kg oral gavage, mean ± SD, n = 4
Description: The study was carried out in 40 male Wistar Han rats (∼10 weeks; Tri-City Academic Laboratory Animal Centre, Research and Services Centre, Medical University of Gdansk). Rats were fasted for 12 h (water was available at libitum) before administration and fed 4 h post-dose. Rats received CPL500036 (3 mg/kg per oral gavage). At each of eight time points (15 min, 30 min as well as 1 h, 2 h, 4 h, 7 h, 12 h, and 24 h), five rats were killed by exsanguination, and samples of blood and brain were harvested. Two male and two female Beagle dogs (10.5–13 months old, MediTox s.r.o., Konarovice, Czech Republic) received CPL500036 in a dose of 1.5 mg/kg per oral gavage. Blood was taken by venepuncture from v. cephalica antebrachii at twelve time points (0 min, 15 min, 30 min as well as 1 h, 2 h, 3 h, 4 h, 6 h, 8 h, 12 h, 24 h, and 48 h.
Blood was collected into tubes containing the anticoagulant K2EDTA and centrifuged (2,000 × g, 15 min, 4°C) to obtain plasma. Brain samples were homogenized in water. Plasma and brain homogenates were stored at −80°C until analyses. Acetonitrile (150 μl) spiked with internal standard (donepezil; MilliporeSigma) was added to 50 μl of each plasma homogenate or brain homogenate, respectively. The mixture was shaken vigorously for 2 min and then centrifuged (4,000 × g, 4 min, room temperature). Supernatants were injected into a high-performance liquid chromatography system (Infinity™ 1,260; Agilent Technologies, Santa Clara, CA, United States) with a Zorbax SB column ([…]; 1.8 μm; Agilent Technologies). The mobile phase was ammonium formate (20 mM, pH 3.0) and acetonitrile with 0.1% formic acid. The gradient chromatographic separation used a flow rate of 0.4 ml/min for 7.5 min at a nominal temperature of 30°C. Signal acquisition was undertaken for 5.5 min using of a triple quadrupole mass spectrometer (6,460 series; Agilent Technologies) with electrospray ionization (5500 V, 320°C). Multiple-reaction monitoring was applied to detect the following transitions of the m/z ratio: 342.0–220.9 and 342–235.9 for CPL500036; 380.5–362.9 and 380.5–243.5 for donepezil. The drug concentration was calculated from the ratio of the peak area response relative to the internal standard using a standard curve.

Sprague–Dawley rats = experiment: Catalepsy bar test; format: in vivo; settings: p.o.
Description: Sprague–Dawley rats (∼300 g; Charles River Laboratories, Wilmington, MA, United States) (n = 8–12/group) were treated (p.o.) with vehicle or CPL500036 (0.15 mg/kg, 0.3 mg/kg, 0.6 mg/kg or 2 mg/kg). As a positive control causing catalepsy, haloperidol (1 mg/kg, i.p.) was employed. One hour following drug administration, catalepsy (prolonged maintenance of an externally imposed abnormal posture) was assessed using the bar test as described by Ionova and Severtsev ([Ionov and Severtsev, 2012]). Testing was accomplished by placing each rat in an upright position with his forepaws resting on a horizontal bar (0.9 cm in diameter) suspended in a wooden frame 7.5 cm above the cage floor. The rat was allowed to keep his forepaws on the bar for a measurement lasting for 30 s. The latency to remove both forepaws from the bar was measured with a hand-held stopwatch. The test was repeated for each rat every 30 min up to 240 min. Rats were returned to their home cages between tests. Each rat was tested twice, at an interval of 1 week.

[6] = With metabolic activation (+S9 mix), 2AA 2µg/plate
[7] = Without metabolic activation (-S9 mix), SAZ 2µg/plate
[8] = Without metabolic activation (-S9 mix), NPD 4µg/plate

Cc1ncc(C)n2nc(-c3ccn4cc(-c5ccccc5)nc4n3)nc12 [CPL500036, 7-[5,8-Dimethyl-(1,2,4)triazolo (1,5-a)pyrazin-2-yl]-2-phenylimidazo (1,2-a) pyrimidine]
Mutation rate [1, 6]: 0.82 | Revertants Mean±SD [1, 6]: 62.3±9.02 | Mutation rate [1, 7]: 1.02 | Revertants Mean±SD [1, 7]: 66.3±1.08 | Mutation rate [2, 6]: 0.92 | Revertants Mean±SD [2, 6]: 18.3±8.02 | Mutation rate [2, 8]: 0.74 | Revertants Mean±SD [2, 8]: 14.3±1.15 | effect on the number or size of spheroids, intracellular calcium concentration, mitochondrial mass, membrane potential or intracellular ATP ([3]; 0.0457 μM–100 µM): no effect | IC50 ([3]; Homo sapiens, 3D cardiac spheroids, 0.0457 μM–100 µM, read-out: IC50, impaired DNA structure): 37.4 µM | AC50 ([3]; Homo sapiens, 3D cardiac spheroids, read-out: DNA structure AC50): 37.4 µM | dose showing therapeutic activity [4]: 0.1 mg/kg | Cmax [5]: 98.3 ± 55.4 ng/mL | Tmax [5]: 1.3 ± 0.5 h | half-life [5]: 2.1 ± 1.7 h | AUC(0-t) ([5]; read-out: AUC(0–24h)): 199 ± 106 ng·h/mL | catalepsy, bar test (Sprague–Dawley rats; 0.15 mg/kg, 60 min–240 min after administration): did not induce catalepsy | catalepsy, bar test (Sprague–Dawley rats; 0.3 mg/kg, appeared only at 210 min and 240 min): low cataleptogenic effect | catalepsy, bar test (Sprague–Dawley rats; 0.6 mg/kg, 60 min–240 min after administration): apparent 120 min–240 min following administration, but did not achieve the level elicited by haloperidol | catalepsy, bar test (Sprague–Dawley rats; 2 mg/kg, compared with haloperidol 1 mg/kg, i.p.): strong cataleptogenic effect comparable with that of haloperidol | minimum effective dose (MED) needed to elicit catalepsy (Sprague–Dawley rats; from AUC data of the duration of catalepsy): 0.6 mg/kg
